Assay results taken from patent US20250073241A1, “Combination Therapies Using PRMT5 Inhibitors for the Treatment of Cancer” (MIRATI THERAPEUTICS, INC., priority 2021, published 2025).

Columns and labels:
Assay type in all cases: in vivo, mice
H1650 xenograft tumors = assay: H1650 lung tumor xenograft, Example 5; settings: Palbociclib 130 mg/kg PO QD
Description: (§1) The compound of the disclosure was evaluated in several different lung tumor xenograft models: HCC4006, SW1573 PRMT5-044, H1650, and A549 PRMT-034. […] 2021, incorporated by reference in its entirety.

MKN45 xenograft tumors = assay: MKN45 gastric tumor xenograft, Example 9; settings: Palbociclib 130 mg/kg PO QD
Description: Immunodeficient female nu/nu mice were implanted with 5×10^6 LU99 lung cancer cells in 50% Matrigel. Tumors were measured using calipers until they reached approximately 150-200 mm^3. Animals were randomized to receive A) vehicle (0.5% methylcellulose (4000 cps)/0.2% Tween80 in water), B) a PRMT5 inhibitor, C) CDK4/6 inhibitor, or D) the PRMT5 inhibitor and CDK4/6 inhibitor, all administered orally (PO) for 21 days. Tumor volume was measured twice a week (n=5/treatment group). Average tumor volume and standard error of the mean was calculated and plotted at each study day in GraphPad.

[1] = test system: A549 PRMT-034 xenograft tumors; assay: A549 PRMT-034 lung tumor xenograft, Example 6; settings: Palbociclib 130 mg/kg PO QD
Description: as §1

[2] = test system: PANC-05-04 xenograft tumors; assay: PANC-05-04 pancreatic tumor xenograft, Example 7; settings: Palbociclib 130 mg/kg PO QD
Description: (§2) The compound of the disclosure was evaluated in a couple of different pancreatic tumor xenograft models: PANC-05-04 and BXPC-3.

BXPC-3 xenograft tumors = assay: BXPC-3 pancreatic tumor xenograft, Example 8; settings: Palbociclib 130 mg/kg PO QD
Description: as §2

HCC4006 xenograft tumors = assay: HCC4006 lung tumor xenograft, Example 3; settings: Palbociclib 130 mg/kg PO QD
Description: as §1

[3] = test system: KRAS^G12C and CDKN2A/MTAP^DEL lung tumor xenograft LU99 model; assay: LU99 lung tumor xenograft, Example 2 (MRTX7477 / palbociclib); settings: palbociclib 130 mg/kg PO QD
From the text: (§3) 2021, incorporated by reference in its entirety.

[4] = test system: KRAS^G12C and CDKN2A/MTAP^DEL lung tumor xenograft LU99 model; assay: LU99 lung tumor xenograft, Example 1 (MRTX9768 / palbociclib); settings: palbociclib 130 mg/kg PO QD
Description: as §3
The CDK4/6 inhibitor used in this example was palbociclib administered at 130mg/kg once a day (QD). Palbociclib is 6-acetyl-8-cyclopentyl-5-methyl-2-[(5-piperazin-1-ylpyridin-2-yl)amino]pyrido[2,3-d]pyrimidin-7-one, and is sold as Ibrance® available from Pfizer Inc., New York, New York.

[5] = Day 0, MRTX1719 100 mg/kg PO QD
[6] = Day 3, MRTX1719 100 mg/kg PO QD
[7] = Day 7, MRTX1719 100 mg/kg PO QD
[8] = Day 10, MRTX1719 100 mg/kg PO QD
[9] = Day 14, MRTX1719 100 mg/kg PO QD
[10] = Day 17, MRTX1719 100 mg/kg PO QD
[11] = Day 20, MRTX1719 100 mg/kg PO QD
[12] = Day 1, MRTX1719 100 mg/kg PO QD
[13] = Day 8, MRTX1719 100 mg/kg PO QD
[14] = Day 12, MRTX1719 100 mg/kg PO QD
[15] = Day 15, MRTX1719 100 mg/kg PO QD
[16] = Day 19, MRTX1719 100 mg/kg PO QD
[17] = Day 22, MRTX1719 100 mg/kg PO QD
[18] = Day 26, MRTX1719 100 mg/kg PO QD
[19] = Day 29, MRTX1719 100 mg/kg PO QD
[20] = Day 34, MRTX1719 100 mg/kg PO QD
[21] = Day 13, MRTX1719 50 mg/kg PO QD
[22] = Day 16, MRTX1719 50 mg/kg PO QD
[23] = Day 20, MRTX1719 50 mg/kg PO QD
[24] = Day 2, MRTX1719 100 mg/kg PO QD
[25] = Day 5, MRTX1719 100 mg/kg PO QD
[26] = Day 9, MRTX1719 100 mg/kg PO QD
[27] = Day 16, MRTX1719 100 mg/kg PO QD

Cn1ncc(-c2ccc3c(=O)[nH]nc(CN)c3c2)c1-c1c(F)c(Cl)cc(OC2CC2)c1C#N [MRTX1719, (2M)-2-(4-(4-(aminomethyl)-1-oxo-1,2-dihydrophthalazin-6-yl)-1-methyl-1H-pyrazol-5-y1)-4-chloro-6-cyclopropoxy-3-fluorobenzonitrile]
Tumor Volume, Mean (H1650 xenograft tumors; [5]): 146 mm^3 | Tumor Volume, Mean (H1650 xenograft tumors; [6]): 231 mm^3 | Tumor Volume, Mean (H1650 xenograft tumors; [7]): 471 mm^3 | Tumor Volume, Mean (H1650 xenograft tumors; [8]): 599 mm^3 | Tumor Volume, Mean (H1650 xenograft tumors; [9]): 625 mm^3 | Tumor Volume, Mean (H1650 xenograft tumors; [10]): 711 mm^3 | Tumor Volume, Mean (H1650 xenograft tumors; [11]): 635 mm^3 | Tumor Volume, Mean (MKN45 xenograft tumors; [5]): 105 mm^3 | Tumor Volume, Mean (MKN45 xenograft tumors; [6]): 165 mm^3 | Tumor Volume, Mean (MKN45 xenograft tumors; [7]): 207 mm^3 | Tumor Volume, Mean (MKN45 xenograft tumors; [8]): 221 mm^3 | Tumor Volume, Mean (MKN45 xenograft tumors; [9]): 214 mm^3 | Tumor Volume, Mean (MKN45 xenograft tumors; [10]): 230 mm^3 | Tumor Volume, Mean (MKN45 xenograft tumors; [11]): 221 mm^3 | Tumor Volume, Mean [1, 12]: 118 mm^3 | Tumor Volume, Mean [1, 13]: 169 mm^3 | Tumor Volume, Mean [1, 14]: 200 mm^3 | Tumor Volume, Mean [1, 15]: 210 mm^3 | Tumor Volume, Mean [1, 16]: 214 mm^3 | Tumor Volume, Mean [1, 17]: 221 mm^3 | Tumor Volume, Mean [1, 18]: 263 mm^3 | Tumor Volume, Mean [1, 19]: 288 mm^3 | Tumor Volume, Mean [1, 20]: 325 mm^3 | Tumor Volume, Mean [2, 5]: 149 mm^3 | Tumor Volume, Mean [2, 6]: 382 mm^3 | Tumor Volume, Mean [2, 7]: 519 mm^3 | Tumor Volume, Mean [2, 8]: 559 mm^3 | Tumor Volume, Mean [2, 9]: 563 mm^3 | Tumor Volume, Mean [2, 10]: 624 mm^3 | Tumor Volume, Mean [2, 11]: 603 mm^3 | Tumor Volume, Mean (BXPC-3 xenograft tumors; Day 0, MRTX1719 50 mg/kg PO QD): 122 mm^3 | Tumor Volume, Mean (BXPC-3 xenograft tumors; Day 3, MRTX1719 50 mg/kg PO QD): 174 mm^3 | Tumor Volume, Mean (BXPC-3 xenograft tumors; Day 6, MRTX1719 50 mg/kg PO QD): 206 mm^3 | Tumor Volume, Mean (BXPC-3 xenograft tumors; Day 9, MRTX1719 50 mg/kg PO QD): 310 mm^3 | Tumor Volume, Mean (BXPC-3 xenograft tumors; [21]): 359 mm^3 | Tumor Volume, Mean (BXPC-3 xenograft tumors; [22]): 372 mm^3 | Tumor Volume, Mean (BXPC-3 xenograft tumors; [23]): 368 mm^3 | Tumor Volume, Mean (HCC4006 xenograft tumors; [5]): 126 mm^3 | Tumor Volume, Mean (HCC4006 xenograft tumors; [24]): 150 mm^3 | Tumor Volume, Mean (HCC4006 xenograft tumors; [25]): 159 mm^3 | Tumor Volume, Mean (HCC4006 xenograft tumors; [26]): 154 mm^3 | Tumor Volume, Mean (HCC4006 xenograft tumors; [14]): 156 mm^3 | Tumor Volume, Mean (HCC4006 xenograft tumors; [27]): 159 mm^3 | Tumor Volume, Mean (HCC4006 xenograft tumors; [11]): 78 mm^3

CC(=O)c1c(C)c2cnc(Nc3ccc(N4CCNCC4)cn3)nc2n(C2CCCC2)c1=O [palbociclib, 6-acetyl-8-cyclopentyl-5-methyl-2-[(5-piperazin-1-ylpyridin-2-yl)amino]pyrido[2,3-d]pyrimidin-7-one]
Tumor Volume ([3]; Day 1, MRTX7477 200 mg/kg PO BID): 209.8 mm^3 | Tumor Volume ([3]; Day 5, MRTX7477 200 mg/kg PO BID): 215.9 mm^3 | Tumor Volume ([3]; Day 8, MRTX7477 200 mg/kg PO BID): 277.3 mm^3 | Tumor Volume ([3]; Day 12, MRTX7477 200 mg/kg PO BID): 359.4 mm^3 | Tumor Volume ([3]; Day 15, MRTX7477 200 mg/kg PO BID): 413.5 mm^3 | Tumor Volume ([3]; Day 19, MRTX7477 200 mg/kg PO BID): 675.9 mm^3 | Tumor Volume ([3]; Day 21, MRTX7477 200 mg/kg PO BID): 827.0 mm^3 | Tumor Volume ([3]; Day −2, MRTX7477 200 mg/kg PO BID): 133.4 mm^3 | Tumor Volume, Mean (H1650 xenograft tumors; [5]): 147 mm^3 | Tumor Volume, Mean (H1650 xenograft tumors; [6]): 268 mm^3 | Tumor Volume, Mean (H1650 xenograft tumors; [7]): 356 mm^3 | Tumor Volume, Mean (H1650 xenograft tumors; [8]): 493 mm^3 | Tumor Volume, Mean (H1650 xenograft tumors; [9]): 480 mm^3 | Tumor Volume, Mean (H1650 xenograft tumors; [10]): 589 mm^3 | Tumor Volume, Mean (H1650 xenograft tumors; [11]): 743 mm^3 | Tumor Volume, Mean (MKN45 xenograft tumors; [5]): 106 mm^3 | Tumor Volume, Mean (MKN45 xenograft tumors; [6]): 158 mm^3 | Tumor Volume, Mean (MKN45 xenograft tumors; [7]): 236 mm^3 | Tumor Volume, Mean (MKN45 xenograft tumors; [8]): 264 mm^3 | Tumor Volume, Mean (MKN45 xenograft tumors; [9]): 330 mm^3 | Tumor Volume, Mean (MKN45 xenograft tumors; [10]): 434 mm^3 | Tumor Volume, Mean (MKN45 xenograft tumors; [11]): 474 mm^3 | Tumor Volume, Mean [1, 12]: 118 mm^3 | Tumor Volume, Mean [1, 25]: 134 mm^3 | Tumor Volume, Mean [1, 13]: 155 mm^3 | Tumor Volume, Mean [1, 14]: 177 mm^3 | Tumor Volume, Mean [1, 15]: 189 mm^3 | Tumor Volume, Mean [1, 16]: 179 mm^3 | Tumor Volume, Mean [1, 17]: 186 mm^3 | Tumor Volume, Mean [1, 18]: 220 mm^3 | Tumor Volume, Mean [1, 19]: 255 mm^3 | Tumor Volume, Mean [1, 20]: 263 mm^3 | Tumor Volume, Mean ([4]; Day 0, MRTX9768 100 mg/kg PO BID): 184.39 mm^3 | Tumor Volume, Mean ([4]; Day 3, MRTX9768 100 mg/kg PO BID): 247.02 mm^3 | Tumor Volume, Mean ([4]; Day 7, MRTX9768 100 mg/kg PO BID): 355.77 mm^3 | Tumor Volume, Mean ([4]; Day 10, MRTX9768 100 mg/kg PO BID): 482.60 mm^3 | Tumor Volume, Mean ([4]; Day 14, MRTX9768 100 mg/kg PO BID): 731.56 mm^3 | Tumor Volume, Mean ([4]; Day 17, MRTX9768 100 mg/kg PO BID): 914.41 mm^3 | Tumor Volume, Mean ([4]; Day 21, MRTX9768 100 mg/kg PO BID): 1148.44 mm^3 | Tumor Volume, Mean [2, 5]: 149 mm^3 | Tumor Volume, Mean [2, 6]: 319 mm^3 | Tumor Volume, Mean [2, 7]: 365 mm^3 | Tumor Volume, Mean [2, 8]: 378 mm^3 | Tumor Volume, Mean [2, 9]: 341 mm^3 | Tumor Volume, Mean [2, 10]: 391 mm^3 | Tumor Volume, Mean [2, 11]: 350 mm^3 | Tumor Volume, Mean (BXPC-3 xenograft tumors; Day 0, MRTX1719 50 mg/kg PO QD): 122 mm^3 | Tumor Volume, Mean (BXPC-3 xenograft tumors; Day 3, MRTX1719 50 mg/kg PO QD): 162 mm^3 | Tumor Volume, Mean (BXPC-3 xenograft tumors; Day 6, MRTX1719 50 mg/kg PO QD): 174 mm^3 | Tumor Volume, Mean (BXPC-3 xenograft tumors; Day 9, MRTX1719 50 mg/kg PO QD): 187 mm^3 | Tumor Volume, Mean (BXPC-3 xenograft tumors; [21]): 195 mm^3 | Tumor Volume, Mean (BXPC-3 xenograft tumors; [22]): 190 mm^3 | Tumor Volume, Mean (BXPC-3 xenograft tumors; [23]): 193 mm^3 | Tumor Volume, Mean (HCC4006 xenograft tumors; [5]): 127 mm^3 | Tumor Volume, Mean (HCC4006 xenograft tumors; [24]): 155 mm^3 | Tumor Volume, Mean (HCC4006 xenograft tumors; [25]): 143 mm^3 | Tumor Volume, Mean (HCC4006 xenograft tumors; [26]): 117 mm^3 | Tumor Volume, Mean (HCC4006 xenograft tumors; [14]): 115 mm^3 | Tumor Volume, Mean (HCC4006 xenograft tumors; [27]): 111 mm^3 | Tumor Volume, Mean (HCC4006 xenograft tumors; [11]): 100 mm^3
